Laboratory results from ChEMBL document CHEMBL1201862, “PubChem BioAssay data set” (2004).
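48-hour exposure; five concentrations; linearly interpolated endpoints. At the GI50, growth is halved.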 Calls of active or inactive are those of the source. No stated cut-off is given here; in the data, active = GI50 up to about 1.1 µM and inactive = higher.

How the values were obtained:
Assay in all cases: inhibition of tumour cell growth, NCI panel, 48 h
MOLT-4 = test system: MOLT-4
NCI/ADR-RES = test system: NCI/ADR-RES
SNB-19 = test system: SNB-19
TK-10 = test system: TK-10
RPMI-8226 = test system: RPMI-8226
BT-549 = test system: BT-549
CCRF-CEM = test system: CCRF-CEM
LOX IMVI = test system: LOX IMVI
HL-60 = test system: HL-60
NCI-H23 = test system: NCI-H23
RXF 393 = test system: RXF 393
DU-145 = test system: DU-145
Hs-578T = test system: Hs-578T
MDA-MB-231 = test system: MDA-MB-231
UACC-62 = test system: UACC-62
OVCAR-4 = test system: OVCAR-4
SK-OV-3 = test system: SK-OV-3
IGROV-1 = test system: IGROV-1
786-0 = test system: 786-0
U-251 = test system: U-251
UO-31 = test system: UO-31
HOP-62 = test system: HOP-62
HOP-92 = test system: HOP-92
UACC-257 = test system: UACC-257
CAKI-1 = test system: CAKI-1
SF-268 = test system: SF-268
K562 = test system: K562
OVCAR-8 = test system: OVCAR-8
HT-29 = test system: HT-29
Malme-3M = test system: Malme-3M
SK-MEL-28 = test system: SK-MEL-28
HCT-15 = test system: HCT-15
NCI-H226 = test system: NCI-H226
SK-MEL-2 = test system: SK-MEL-2
NCI-H460 = test system: NCI-H460
KM12 = test system: KM12
PC-3 = test system: PC-3
SF-295 = test system: SF-295
COLO 205 = test system: COLO 205
MDA-MB-435 = test system: MDA-MB-435
T47D = test system: T47D
SK-MEL-5 = test system: SK-MEL-5
NCI-H522 = test system: NCI-H522
OVCAR-5 = test system: OVCAR-5
EKVX = test system: EKVX
SNB-75 = test system: SNB-75
ACHN = test system: ACHN
SF-539 = test system: SF-539
HCT-116 = test system: HCT-116
A549 = test system: A549
OVCAR-3 = test system: OVCAR-3
SR = test system: SR
M14 = test system: M14
SW-620 = test system: SW-620
MCF7 = test system: MCF7
A498 = test system: A498
SN12C = test system: SN12C
HCC 2998 = test system: HCC 2998
MDA-N = test system: MDA-N

Cc1c2cccc-2ccc2c3ccccc3n(C(=O)c3ccc(Cl)cc3)c12
GI50 (MOLT-4): > 85.5 µM (inactive)
GI50 (NCI/ADR-RES): > 100 µM (inactive)
GI50 (SNB-19): > 100 µM (inactive)
GI50 (TK-10): > 100 µM (inactive)
GI50 (RPMI-8226): 45.1 µM (inactive)
GI50 (BT-549): > 100 µM (inactive)
GI50 (CCRF-CEM): > 57 µM (inactive)
GI50 (LOX IMVI): > 100 µM (inactive)
GI50 (HL-60): > 82.6 µM (inactive)
GI50 (NCI-H23): > 100 µM (inactive)
GI50 (RXF 393): > 100 µM (inactive)
GI50 (DU-145): > 100 µM (inactive)
GI50 (Hs-578T): > 91.2 µM (inactive)
GI50 (MDA-MB-231): > 100 µM (inactive)
GI50 (UACC-62): > 100 µM (inactive)
GI50 (OVCAR-4): > 100 µM (inactive)
GI50 (SK-OV-3): > 100 µM (inactive)
GI50 (IGROV-1): > 100 µM (inactive)
GI50 (786-0): > 100 µM (inactive)
GI50 (U-251): > 100 µM (inactive)
GI50 (UO-31): > 100 µM (inactive)
GI50 (HOP-62): > 100 µM (inactive)
GI50 (HOP-92): > 100 µM (inactive)
GI50 (UACC-257): > 100 µM (inactive)
GI50 (CAKI-1): > 100 µM (inactive)
GI50 (SF-268): > 100 µM (inactive)
GI50 (K562): > 100 µM (inactive)
GI50 (OVCAR-8): > 100 µM (inactive)
GI50 (HT-29): > 76.7 µM (inactive)
GI50 (Malme-3M): > 100 µM (inactive)
GI50 (SK-MEL-28): > 100 µM (inactive)
GI50 (HCT-15): 10.6 µM
GI50 (NCI-H226): > 100 µM (inactive)
GI50 (SK-MEL-2): > 100 µM (inactive)
GI50 (NCI-H460): > 89.7 µM (inactive)
GI50 (KM12): 26.7 µM (inactive)
GI50 (PC-3): > 100 µM (inactive)
GI50 (SF-295): > 100 µM (inactive)
GI50 (COLO 205): 46.7 µM (inactive)
GI50 (MDA-MB-435): > 100 µM (inactive)
GI50 (T47D): 1.39 µM (inactive)
GI50 (SK-MEL-5): > 100 µM (inactive)
GI50 (NCI-H522): > 100 µM (inactive)
GI50 (OVCAR-5): > 100 µM (inactive)
GI50 (EKVX): 34.1 µM (inactive)
GI50 (SNB-75): > 100 µM (inactive)
GI50 (ACHN): > 100 µM (inactive)
GI50 (SF-539): > 100 µM (inactive)
GI50 (HCT-116): 96.8 µM (inactive)
GI50 (A549): > 100 µM (inactive)
GI50 (OVCAR-3): > 100 µM (inactive)
GI50 (SR): > 63.7 µM (inactive)
GI50 (M14): > 100 µM (inactive)
GI50 (SW-620): > 100 µM (inactive)
GI50 (MCF7): 0.479 µM (active)
GI50 (A498): > 100 µM (inactive)
GI50 (SN12C): > 100 µM (inactive)

N#CC1C(=O)NC23CCCCC2C1c1ccccc1O3 (centres undefined)
GI50 (MOLT-4): > 100 µM (inactive)
GI50 (NCI/ADR-RES): > 100 µM (inactive)
GI50 (SNB-19): > 100 µM (inactive)
GI50 (TK-10): > 100 µM (inactive)
GI50 (RPMI-8226): > 100 µM (inactive)
GI50 (BT-549): > 100 µM (inactive)
GI50 (HCC 2998): > 100 µM (inactive)
GI50 (CCRF-CEM): 74.8 µM (inactive)
GI50 (LOX IMVI): > 100 µM (inactive)
GI50 (HL-60): > 100 µM (inactive)
GI50 (NCI-H23): > 100 µM (inactive)
GI50 (RXF 393): > 100 µM (inactive)
GI50 (DU-145): > 100 µM (inactive)
GI50 (MDA-MB-231): > 100 µM (inactive)
GI50 (UACC-62): > 100 µM (inactive)
GI50 (OVCAR-4): > 100 µM (inactive)
GI50 (SK-OV-3): > 100 µM (inactive)
GI50 (IGROV-1): > 100 µM (inactive)
GI50 (786-0): > 100 µM (inactive)
GI50 (U-251): > 100 µM (inactive)
GI50 (UO-31): > 100 µM (inactive)
GI50 (HOP-62): > 100 µM (inactive)
GI50 (HOP-92): 0.241 µM (active)
GI50 (UACC-257): > 100 µM (inactive)
GI50 (CAKI-1): > 100 µM (inactive)
GI50 (SF-268): 2.1 µM (inactive)
GI50 (K562): > 100 µM (inactive)
GI50 (OVCAR-8): > 100 µM (inactive)
GI50 (HT-29): > 100 µM (inactive)
GI50 (Malme-3M): > 100 µM (inactive)
GI50 (SK-MEL-28): 53.5 µM (inactive)
GI50 (HCT-15): > 100 µM
GI50 (NCI-H226): > 100 µM (inactive)
GI50 (SK-MEL-2): > 100 µM (inactive)
GI50 (NCI-H460): > 100 µM (inactive)
GI50 (KM12): > 100 µM (inactive)
GI50 (PC-3): > 100 µM (inactive)
GI50 (SF-295): > 100 µM (inactive)
GI50 (COLO 205): > 100 µM (inactive)
GI50 (MDA-MB-435): > 100 µM (inactive)
GI50 (SK-MEL-5): > 100 µM (inactive)
GI50 (NCI-H522): > 100 µM (inactive)
GI50 (OVCAR-5): > 100 µM (inactive)
GI50 (EKVX): > 100 µM (inactive)
GI50 (SNB-75): > 100 µM (inactive)
GI50 (ACHN): > 100 µM (inactive)
GI50 (HCT-116): > 100 µM (inactive)
GI50 (MDA-N): > 100 µM (inactive)
GI50 (A549): > 100 µM (inactive)
GI50 (OVCAR-3): > 100 µM (inactive)
GI50 (M14): > 100 µM (inactive)
GI50 (SW-620): > 100 µM (inactive)
GI50 (MCF7): > 100 µM (inactive)
GI50 (A498): > 100 µM (inactive)

N#C/C(=C\c1cc(Cl)cc(Cl)c1)c1ccccn1
GI50 (MOLT-4): 5.14 µM (inactive)
GI50 (NCI/ADR-RES): 3.93 µM (inactive)
GI50 (SNB-19): > 100 µM (inactive)
GI50 (TK-10): 58.5 µM (inactive)
GI50 (RPMI-8226): > 100 µM (inactive)
GI50 (BT-549): 4.71 µM (inactive)
GI50 (HCC 2998): 31 µM (inactive)
GI50 (CCRF-CEM): 3.63 µM (inactive)
GI50 (HL-60): 6.27 µM (inactive)
GI50 (NCI-H23): 6.35 µM (inactive)
GI50 (RXF 393): 5.11 µM (inactive)
GI50 (DU-145): 70.6 µM (inactive)
GI50 (UACC-62): 12 µM (inactive)
GI50 (OVCAR-4): 53 µM (inactive)
GI50 (SK-OV-3): 4.52 µM (inactive)
GI50 (IGROV-1): 12.4 µM (inactive)
GI50 (786-0): 21.5 µM (inactive)
GI50 (U-251): 7.94 µM (inactive)
GI50 (UO-31): 43.8 µM (inactive)
GI50 (HOP-62): 20 µM (inactive)
GI50 (UACC-257): 82.8 µM (inactive)
GI50 (CAKI-1): 13.6 µM (inactive)
GI50 (SF-268): 27.7 µM (inactive)
GI50 (K562): 3.95 µM (inactive)
GI50 (OVCAR-8): 18 µM (inactive)
GI50 (HT-29): 18.2 µM (inactive)
GI50 (Malme-3M): > 100 µM (inactive)
GI50 (SK-MEL-28): 8.63 µM (inactive)
GI50 (HCT-15): 4.75 µM
GI50 (NCI-H226): 5.47 µM (inactive)
GI50 (SK-MEL-2): 92 µM (inactive)
GI50 (NCI-H460): 7.83 µM (inactive)
GI50 (KM12): 9.59 µM (inactive)
GI50 (PC-3): 11.3 µM (inactive)
GI50 (SF-295): 10.5 µM (inactive)
GI50 (COLO 205): 31.8 µM (inactive)
GI50 (SK-MEL-5): 8.51 µM (inactive)
GI50 (NCI-H522): 9.44 µM (inactive)
GI50 (OVCAR-5): > 100 µM (inactive)
GI50 (EKVX): 3.46 µM (inactive)
GI50 (SNB-75): 5.55 µM (inactive)
GI50 (ACHN): 64.1 µM (inactive)
GI50 (SF-539): 19.1 µM (inactive)
GI50 (HCT-116): 34.3 µM (inactive)
GI50 (MDA-N): 10.1 µM (inactive)
GI50 (A549): 18.9 µM (inactive)
GI50 (OVCAR-3): 26.1 µM (inactive)
GI50 (SR): 6.27 µM (inactive)
GI50 (M14): 35.5 µM (inactive)
GI50 (SW-620): 15.6 µM (inactive)
GI50 (MCF7): 5.61 µM (inactive)
GI50 (A498): 0.757 µM (active)
GI50 (SN12C): > 100 µM (inactive)
